Data published in US20030114354A1, “Polynucleotide encoding a novel potassium channel with homology to the ether-a-go-go family, HEAG2” (priority 2001, published 2003).
Blank lines part the entries; values can stand above or below the compound they belong to.

Experiments:
Eag proteins = settings: intracellular Ca++; read-out: half-maximal inhibition concentration; cited from earlier work
hEAG2 = target: T1, hEAG2 (Homo sapiens, UniProt Q8NCM2); assay: Whole cell electrophysiology of hEAG2 and GFP cotransfected CHO cells; format: cell-based
T1 construct: The complete open reading frame of HEAG2 cDNA was cloned into an Invitrogen native expression Gateway entry vector; expressed in transfected cells; host or cells: CHO cells, transient co-transfection with GFP DNA (Lipofectamine Plus)
T1 sequence (Q8NCM2 1-988): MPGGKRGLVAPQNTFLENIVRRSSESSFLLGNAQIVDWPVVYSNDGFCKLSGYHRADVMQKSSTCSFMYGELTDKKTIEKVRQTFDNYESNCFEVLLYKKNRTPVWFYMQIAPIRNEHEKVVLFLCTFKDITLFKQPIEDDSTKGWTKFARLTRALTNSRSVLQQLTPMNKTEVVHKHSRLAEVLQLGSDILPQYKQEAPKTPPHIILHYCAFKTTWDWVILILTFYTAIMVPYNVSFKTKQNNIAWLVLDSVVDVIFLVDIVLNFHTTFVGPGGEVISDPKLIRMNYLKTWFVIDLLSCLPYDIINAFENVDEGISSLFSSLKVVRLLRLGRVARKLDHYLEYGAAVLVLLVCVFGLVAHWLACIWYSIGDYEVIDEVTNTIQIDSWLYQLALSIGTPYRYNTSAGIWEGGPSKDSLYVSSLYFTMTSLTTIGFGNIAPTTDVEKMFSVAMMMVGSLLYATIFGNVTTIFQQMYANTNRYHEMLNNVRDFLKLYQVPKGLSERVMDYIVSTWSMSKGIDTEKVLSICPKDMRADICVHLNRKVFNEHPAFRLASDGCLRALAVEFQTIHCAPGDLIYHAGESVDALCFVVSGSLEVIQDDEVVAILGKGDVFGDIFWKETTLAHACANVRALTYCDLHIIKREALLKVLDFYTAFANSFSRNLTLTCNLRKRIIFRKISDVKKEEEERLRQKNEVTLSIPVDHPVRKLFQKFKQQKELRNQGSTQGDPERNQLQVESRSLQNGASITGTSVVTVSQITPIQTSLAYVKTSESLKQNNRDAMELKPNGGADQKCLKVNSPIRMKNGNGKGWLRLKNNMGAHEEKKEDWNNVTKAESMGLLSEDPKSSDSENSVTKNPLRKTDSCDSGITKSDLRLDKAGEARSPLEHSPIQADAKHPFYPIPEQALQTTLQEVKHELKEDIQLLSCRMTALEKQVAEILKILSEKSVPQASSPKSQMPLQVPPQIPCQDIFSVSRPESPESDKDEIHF
Protocol: CHO cells were plated in growth medium at 10% (1.2×10^5 cells/dish) and 20% (2.4×10^5 cells/dish) confluence in poly-lysine coated 35 mm dishes. After 24 hours, the growth medium was removed, and cells were rinsed with Optimem (Invitrogen # 31985-070), then refed 0.8 ml Optimem. Cells were transiently co-transfected with 0.5 ug hEAG2 DNA in the pDEST vector, and 0.5 ug of GFP DNA using Lipofectamine Plus (Invitrogen # 10964-013). Three hours post transfection, the transfection mix was removed, and cells were refed with 2 ml growth medium. Twenty four hours post transfection, cells were again refed 2 ml fresh growth medium. Cells were used in experiments 24-72 hrs post transfection. Control experiments were performed in CHO cells transiently transfected with 1 μg of GFP DNA. CHO growth medium is Iscove's medium (Invitrogen #12440)+10% FBS, 1× non-essential amino acids(Invitrogen #12383-014) and 1× HT Supplement (Invitrogen #11067-030). All chemicals were purchased from Sigma Chemicals, St. Louis Mo. The internal solution contained (in mM): KCl 130, MgCl2 1, CaCl2 1, HEPES 10, EGTA 10, and was titrated to a pH of 7.2. […] The bath solution contained (in mM) NaCl 140, KCl 4, MgCl2 1, CaCl2 1.8, HEPES 10, Glucose 10, and was titrated to a pH of 7.4. For some experiments the bath solution was modified by the addition of 1 or 5 mM BaCl2, by changing the concentration of MgCl2 to 0 or 10 mM or by reducing NaCl to 104 mM and increasing KCl to 40 mM. During data recording, cells were constantly superfused with bath solution delivered through a fused silica perfusion tip, internal diameter […]. Solution changes were accomplished through the use of a […]16 multichannel perfusion system from AutoMate Scientific, San Francisco Calif. Currents were recorded on an EPC-9 amplifier (HEKA Electronik, Lambrecht/Pfalz, Germany), controlled through the Pulse software package. Currents were sampled at 10 kHz and filtered at 3.3 kHz. Pipettes were constructed from thin walled borosilicate capillary tubing (Warner Instruments Corp., Hamden Conn.), and pulled to a resistance of 1.5-3 MΩ on a P-97 micropipette puller (Sutter Instrument Co., Novato Calif.). All experiments were conducted at 20° C. Following the establishment of a Gigaohm seal and whole cell access, cells were held at -80 mV. […] All stimulation protocols were applied at 0.1 Hz.

Human lung fibroblasts = assay: Human lung fibroblast proliferation assay (Alamar Blue); format: cell-based; settings: 3 days in basal medium
Protocol: Human lung fibroblasts are obtained from Clonetics (San Diego, Calif.) and maintained in growth media from Clonetics. Dermal microvascular endothelial cells are obtained from Cell Applications (San Diego, Calif.). For proliferation assays, the human lung fibroblasts and dermal microvascular endothelial cells can be cultured at 5,000 cells/well in a 96-well plate for one day in growth medium. The cells are then incubated for one day in 0.1% BSA basal medium. After replacing the medium with fresh 0.1% BSA medium, the cells are incubated with the test proteins for 3 days. Alamar Blue (Alamar Biosciences, Sacramento, Calif.) is added to each well to a final concentration of 10%. The cells are incubated for 4 hr. Cell viability is measured by reading in a CytoFluor fluorescence reader. For the PGE2 assays, the human lung fibroblasts are cultured at 5,000 cells/well in a 96-well plate for one day. […]

[1] = tested on: nigral dopaminergic neurons; settings: gel foam implants in the striatum; cited from earlier work
[2] = picogram quantities, female recipients; cited from earlier work

Compound: [Ca+2] [Ca++]
IC50 (Eag proteins): ~100 nM

tail reversal potential (hEAG2; increased extracellular K^+ (KCl 40 mM, NaCl 104 mM)): approximately −40 mV
Compound: [K+] [K^+, KCl]

Compound: [Ba+2].[Cl-].[Cl-] [Ba^++, BaCl2]
steady state current (hEAG2; addition of Ba^++ to the extracellular solution (bath + 1 or 5 mM BaCl2), depolarization to +40 mV for 1 sec, 20° C): apparent reduction

activation rate of the current (hEAG2; Mg^++ free bath (MgCl2 0 mM)): much faster | activation rate of the current (hEAG2; increased bath Mg^++ (MgCl2 10 mM)): dramatically slowed
Compound: [Mg+2] [Mg^++, MgCl2]

Compound: FGF-2: Fibroblast growth factor 2 (basic FGF), comparator protein for the polypeptides of the invention
stimulation of growth of human lung fibroblasts, concentration showing stimulation (Human lung fibroblasts): 10 to 2500 ng/mL | protection of nigral dopaminergic neurons from toxicity associated with MPTP exposure [1]: near complete protection

Compound: C[C@@]12C=CC[C@H]1[C@@H]1CCC3=CC(=O)CC[C@]3(C)[C@H]1CC2 [androstadienone]
nervousness, tension and other negative feelings [2]: significant reduction
